# Literature values, collected in article PMC12691659 (Antimicrobial Agents and Chemotherapy, 2025).
# How the values were obtained:
# [1] = in vivo; cited from earlier work
# P-glycoprotein (P-gp) = details: cited from earlier work
# [2] = human, in vivo; cited from earlier work
# [3] = human, in vivo; cited from earlier work; remark: listed apart in the source
# [4] = in vivo, cited from earlier work
# Source text: Its retrospective, uncontrolled design limits the ability to establish causal relationships. The adherence to co-prescribing treatments could not be verified. […] Overexposure definition was based on Cmin rather than AUC, because the latter is still not widely available in routine TDM.
compound,measurement,setting,value
CCCCC1=NC2(CCCC2)C(=O)N1Cc1ccc(-c2ccccc2-c2nnn[nH]2)cc1 [irbesartan],Dose eliminated unchanged in the urine,[1],Up to 20%
same,"Inhibition of the transport of digoxin, a known P-gp substrate",P-glycoprotein (P-gp),inhibit the transport of digoxin
same,P-glycoprotein substrate status,P-glycoprotein (P-gp); renal efflux transporter,substrate of P-glycoprotein
CCCCCCCCCC(=O)N[C@@H](Cc1c[nH]c2ccccc12)C(=O)N[C@H](CC(N)=O)C(=O)N[C@@H](CC(=O)O)C(=O)N[C@@H]1C(=O)NCC(=O)N[C@@H](CCCN)C(=O)N[C@@H](CC(=O)O)C(=O)N[C@H](C)C(=O)N[C@@H](CC(=O)O)C(=O)NCC(=O)N[C@H](CO)C(=O)N[C@@H]([C@H](C)CC(=O)O)C(=O)N[C@@H](CC(=O)c2ccccc2N)C(=O)O[C@@H]1C [daptomycin],Dose excreted unchanged by the kidneys,[1],78%
same,"CLDAP, population final estimate",[2],0.365 L/h
same,"Q, population final estimate",[2],0.752 L/h
same,"V1, population final estimate",[2],3.59 L
same,"V2, population final estimate",[2],4.71 L
same,γCL,[2],0.193
same,γV1,[2],0.24
same,"θ1 (CL, CLCR)",[2],0.43
same,"θ2 (CL, Sex)",[2],0.232
same,"θ3 (V1, Age)",[2],0.263
same,"θ4 (V1, WT)",[2],0.603
same,"θ6 (V1, Sex)",[2],0.117
same,ωCL,[2],0.196
same,ωQ,[2],1.13
same,ωV1,[2],0.123
same,ωV2,[2],0.29
same,Increase of AUC in morbidly obese subjects,[3],60%
same,Increase of Cmax in morbidly obese subjects,[3],60%
same,Cmin associated with an increased risk of CPK elevation,[4]; 6 mg/kg,> 24300 ng/mL
same,AUC associated with increased risk of adverse events,[4],> 939 µg·h/mL
same,Cmin associated with increased risk of adverse events,[4],> 24000 ng/mL
CCCc1nc2c(C)cc(-c3nc4ccccc4n3C)cc2n1Cc1ccc(-c2ccccc2C(=O)O)cc1 [telmisartan],"Inhibition of the transport of digoxin, a known P-gp substrate",P-glycoprotein (P-gp),inhibit the transport of digoxin
